{
  "source": "ChEMBL document CHEMBL5728659",
  "about": "“Macrocyclic immunomodulators” (2021)",
  "data": [
    {"test": "Enzyme-Linked Immunosorbent Assay-ELISA: 96 Well plates were coated with 1 μg/mL of human PD-L1 (obtained from R&D) in PBS overnight at 4° C. The wells were then blocked with 2% BSA in PBS (W/V) with 0.05% TWEEN-20 for 1 hour at 37° C. The plates were washed 3 times with PBS/0.05% TWEEN-20 and the compounds were serial diluted (1:5) in dilution medium and added to the ELISA plates. Human PD-1 and biotin 0.3 μg/mL (ACRO Biosystems) were added and incubated for 1 hour at 37° C. then washed 3 times with PBS/0.05% TWEEN-20. A second block was performed with 2% BSA in PBS (W/V)/0.05% TWEEN-20 for 10 min at 37° C. and was washed 3 times with PBS/0.05% TWEEN-20. Streptavidin—HRP was added for 1 hour at 37° C. then washed 3 times with PBS/0.05% TWEEN-20. TMB substrate was added and reacted for 20 min at 37° C. A stop solution (2 N aqueous H2SO4) was added. The absorbance was read at 450 nm using a micro-plate spectrophotometer.", "values": [
      {"smiles": "O=C1NCCCC[C@@H](C(=O)O)NCc2cc(Cl)c(O[C@H]3CCc4c(-c5ccccc5F)cccc43)cc2OCc2cncc1c2", "IC50": "in the range around 300 nM"},
      {"smiles": "Cc1c(COc2cc3c(cc2Cl)CN[C@H](C(=O)O)CCCCNC(=O)CCCCO3)cccc1-c1ccccc1", "IC50": "in the range around 300 nM"},
      {"smiles": "Cc1c(COc2cc3c(cc2Cl)CN[C@H](C(=O)O)CCCCNC(=O)c2cncc(c2)CO3)cccc1-c1cccc(OCCCCl)c1C", "IC50": "in the range around 10200 nM"},
      {"smiles": "Cc1c(COc2cc3c(cc2Cl)CN[C@H](C(=O)O)COCCNC(=O)c2cncc(c2)CO3)cccc1-c1ccccc1", "IC50": "in the range around 300 nM"},
      {"smiles": "Cc1c(COc2cc3c(cc2Cl)CN[C@H](C(=O)O)CCCNC(=O)c2cncc(c2)CO3)cccc1-c1ccccc1", "IC50": "in the range around 300 nM"},
      {"smiles": "Cc1c(COc2cc3c(cc2Cl)CN[C@H](C(=O)O)CCCCNC(=O)c2cncc-3c2)cccc1-c1ccccc1", "IC50": "in the range around 10200 nM"},
      {"smiles": "Cc1c(COc2cc3c(cc2Cl)CN[C@H](CC(=O)O)CCCCNC(=O)c2cncc(c2)CO3)cccc1-c1ccccc1", "IC50": "in the range around 300 nM"},
      {"smiles": "Cc1c(COc2cc3c(cc2Cl)CN[C@@H](CO)C(=O)NCCNC(=O)c2cncc(c2)CO3)cccc1-c1ccccc1", "IC50": "in the range around 300 nM"}
    ]}
  ]
}
